# According to patent US20120178765A1, “NOVEL GLUCOKINASE ACTIVATORS AND PROCESSES FOR THE PREPARATION THEREOF” (YUHAN CORPORATION, priority 2009, published 2012):
# Where a name gives a salt, the structure may show the parent alone.
# Biological target: T1, Glucokinase (Homo sapiens, UniProt P35557)
# T1 construct: purchased ProteinOne Inc
# T1 sequence (P35557 1-465): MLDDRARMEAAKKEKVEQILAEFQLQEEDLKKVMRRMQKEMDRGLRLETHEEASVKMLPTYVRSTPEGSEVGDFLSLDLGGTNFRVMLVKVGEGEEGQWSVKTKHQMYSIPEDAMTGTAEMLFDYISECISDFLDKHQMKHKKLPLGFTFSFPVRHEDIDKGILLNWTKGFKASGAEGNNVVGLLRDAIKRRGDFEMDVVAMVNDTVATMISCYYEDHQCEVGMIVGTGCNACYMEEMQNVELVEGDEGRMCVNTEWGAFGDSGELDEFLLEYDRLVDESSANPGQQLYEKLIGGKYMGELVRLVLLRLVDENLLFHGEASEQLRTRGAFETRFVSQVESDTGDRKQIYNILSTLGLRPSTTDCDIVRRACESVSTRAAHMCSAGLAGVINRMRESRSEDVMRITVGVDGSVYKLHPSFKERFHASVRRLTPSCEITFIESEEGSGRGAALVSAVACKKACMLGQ
# Assay: Glucokinase activation assay (NADPH absorbance at 340 nm)
# Assay type: biochemical
# Settings: glucokinase (ProteinOne Inc.), 5 mM D(+)-glucose, 24° C., 90 minutes
# Experimental: The amounts of glucokinase activation were determined by measuring the levels of NADPH (the final metabolite of glucose through glucokinase-mediated phospho-rylation) and then calculating to glucokinase activities.
# Glucokinase (ProteinOne Inc.) was added, in the concentration of 100 ng/uL, to a enzyme-reaction medium (25 mM HEPES pH 7, 25 mM KCL, 1 mM MgCl, 5 mM D(+)-glucose, 1 mM ATP, 1 mM NADP, 1 mM DTT, and 2.5 u/mL G6PDH). Each compound in predetermined concentrations was added to the enzyme-reaction medium and then absorbance (First Absorbance) was measured at 340 nm of wavelength. After measuring the first absorbance, each reaction mixture was incubated at 24° C. for 90 minutes and then absorbance (Second Absorbance) was re-measured at 340 nm of wavelength. Using changes between First Absorbance and Second Absorbance, glucokinase activity was calculated. In the calculation, a maximum activity of the test compound (Emax), in comparison to the control group (no treatment of compound) was determined and then EC50 was calculated using the software for statistical analysis “Prism”, based on the activity-changes according to concentrations of the test compounds.
# The amounts of glucokinase activation of the compounds of Comparative Examples 1 and 2 were determined, in accordance with the same procedures as in Test Example 1.
row,Compound,EC50
1,3-[2-(4-methoxyphenyl)ethyl]-5-(2-methoxy-(1S)-methyl-ethoxy)-N-(1-methyl-1H-pyrazol-3-yl)-benzamide [Example 100],314 nM
2,"CC(C)COc1cc(/C=C/c2ccc(F)cc2)cc(C(=O)Nc2nccs2)c1 [Example 2, 3-[trans-2-(4-fluorophenyl)vinyl]-5-isobutoxy-N-(thiazol-2-yl)-benzamide]",172 nM
3,3-[2-(3-benzoylaminophenyl)ethyl]-5-(2-methoxy-(1S)-methyl-ethoxy)-N-(thiazol-2-yl)-benzamide [Example 124],281 nM
4,"3-[trans-2-(2,3-difluorophenyl)vinyl]-5-(2-methoxy-(1S)-methyl-ethoxy)-N-(5-fluorothiazol-2-yl)-benzamide [Example 24]",47.3 nM
5,"COC[C@H](C)Oc1cc(CCc2cccc(NC(=O)CC(=O)O)c2)cc(C(=O)Nc2nccs2)c1 [Example 147, 3-[2-(3-malonamic acid phenyl)ethyl]-5-(2-methoxy-(1S)-methyl-ethoxy)-N-(thiazol-2-yl)-benzamide]",222 nM
6,"COC[C@H](C)Oc1cc(/C=C/c2ccccc2Cl)cc(C(=O)Nc2ccn(C)n2)c1 (stereo in doubt) [Example 46, 3-[trans-2-(2-chlorophenyl)vinyl]-5-(2-methoxy-(1S)-methyl-ethoxy)-N-(1-methyl-1H-pyrazol-3-yl)-benzamide]",149 nM
7,"COC[C@H](C)Oc1cc(/C=C/c2cccc(F)c2F)cc(C(=O)Nc2ccc(C(=O)O)cn2)c1 [Example 78, 3-[trans-2-(2,3-difluorophenyl)vinyl]-5-(2-methoxy-(1S)-methyl-ethoxy)-N-(nicotinic acid-6-yl)-benzamide]",123 nM
8,3-[2-(2-fluorophenyl)ethyl]-5-(2-methoxy-(1S)-methyl-ethoxy)-N-(thiazol-2-yl)-benzamide [Example 84],41.6 nM
9,"COC[C@H](C)Oc1cc(CCc2ccccc2N)cc(C(=O)Nc2nccs2)c1 [Example 110, 3-[2-(2-aminophenyl)ethyl]-5-(2-methoxy-(1S)-methyl-ethoxy)-N-(thiazol-2-yl)-benzamide hydrochloride]",68.2 nM
10,3-[trans-2-(2-methoxyphenyl)vinyl]-5-(2-methoxy-(1S)-methyl-ethoxy)-N-(thiazol-2-yl)-benzamide [Example 16],8.4 nM
11,"COC[C@H](C)Oc1cc(/C=C/c2c(F)cccc2F)cc(C(=O)Nc2ccc(C(=O)OC)cn2)c1 [Example 69, 3-[trans-2-(2,6-difluorophenyl)vinyl]-5-(2-methoxy-(1S)-methyl-ethoxy)-N-(nicotinic acid-3-methyl ester-6-yl)-benzamide]",146 nM
12,"COC[C@H](C)Oc1cc(/C=C/c2cc(F)ccc2F)cc(C(=O)Nc2ccc(C(=O)OC)cn2)c1 [Example 68, 3-[trans-2-(2,5-difluorophenyl)vinyl]-5-(2-methoxy-(1S)-methyl-ethoxy)-N-(nicotinic acid-3-methyl ester-6-yl)-benzamide]",355 nM
13,3-[trans-2-(3-nitrophenyl)vinyl]-5-(2-methoxy-(1S)-methyl-ethoxy)-N-(5-fluorothiazol-2-yl)-benzamide [Example 20],123 nM
14,"COC[C@H](C)Oc1cc(/C=C/c2c(F)cccc2F)cc(C(=O)Nc2ccn(C)n2)c1 (stereo in doubt) [Example 37, 3-[trans-2-(2,6-difluorophenyl)vinyl]-5-(2-methoxy-(1S)-methyl-ethoxy)-N-(1-methyl-1H-pyrazol-3-yl)-benzamide]",161 nM
15,3-[trans-2-(3-chlorophenyl)vinyl]-5-(2-methoxy-(1S)-methyl-ethoxy)-N-(1-methyl-1H-pyrazol-3-yl)-benzamide [Example 47],107 nM
16,3-{2-[3-(phenylacetylamino)phenyl]ethyl}-5-(2-methoxy-(1S)-methyl-ethoxy)-N-(thiazol-2-yl)-benzamide [Example 123],225 nM

# More lines, in order of falling EC50, values ahead:
row,EC50,Compound
1,503 nM,3-[trans-2-(2-chlorophenyl)vinyl]-5-(2-methoxy-(1S)-methyl-ethoxy)-N-(pyrazin-2-yl)-benzamide [Example 53]
2,491 nM,3-{2-[3-(3-ethyl-thio-ureido)phenyl]ethyl}-5-(2-methoxy-(1S)-methyl-ethoxy)-N-(thiazol-2-yl)-benzamide [Example 131]
3,448 nM,"3-[2-(2,3-dimethoxyphenyl)ethyl]-5-(2-methoxy-(1S)-methyl-ethoxy)-N-(1-methyl-1H-pyrazol-3-yl)-benzamide [Example 103]"
4,397 nM,3-[trans-2-(4-bromophenyl)vinyl]-5-(2-methoxy-(1S)-methyl-ethoxy)-N-(pyrazin-2-yl)-benzamide [Example 60]
5,387 nM,"COC[C@H](C)Oc1cc(/C=C/c2cccc(F)c2F)cc(C(=O)Nc2ccc(C(=O)OC)cn2)c1 [Example 66, 3-[trans-2-(2,3-difluorophenyl)vinyl]-5-(2-methoxy-(1S)-methyl-ethoxy)-N-(nicotinic acid-3-methyl ester-6-yl)-benzamide]"
6,355 nM,"3-{2-[4-(3,5-dimethoxybenzoylamino)phenyl]ethyl}-5-(2-methoxy-(1S)-methyl-ethoxy)-N-(thiazol-2-yl)-benzamide [Example 141]"
7,333 nM,3-[2-(2-fluorophenyl)ethyl]-5-(2-methoxy-(1S)-methyl-ethoxy)-N-(pyrazin-2-yl)-benz amide [Example 107]
8,304 nM,3-[2-(2-methoxyphenyl)ethyl]-5-(2-methoxy-(1S)-methyl-ethoxy)-N-(pyrazin-2-yl)-benzamide [Example 106]
9,292 nM,3-[2-(4-benzoylaminophenyl)ethyl]-5-(2-methoxy-(1S)-methyl-ethoxy)-N-(thiazol-2-yl)-benzamide [Example 138]
10,239 nM,"COC[C@H](C)Oc1cc(/C=C/c2cccc([N+](=O)[O-])c2)cc(C(=O)Nc2ccn(C)n2)c1 [Example 38, 3-[trans-2-(3-nitrophenyl)vinyl]-5-(2-methoxy-(1S)-methyl-ethoxy)-N-(1-methyl-H-pyrazol-3-yl)-benzamide]"
11,238 nM,3-[trans-2-(2-fluorophenyl)vinyl]-5-(2-methoxy-(1S)-methyl-ethoxy)-N-(pyrazin-2-yl)-benzamide [Example 51]
12,223 nM,"3-[2-(2,4-dimethoxyphenyl)ethyl]-5-(2-methoxy-(1S)-methyl-ethoxy)-N-(1-methyl-1H-pyrazol-3-yl)-benzamide [Example 104]"
13,216 nM,3-[2-(4-fluorophenyl)ethyl]-5-(2-methoxy-(1S)-methyl-ethoxy)-N-(1-methyl-1H-pyrazol-3-yl)-benzamide [Example 98]
14,128 nM,"3-[trans-2-(2,6-dimethoxyphenyl)vinyl]-5-(2-methoxy-(1S)-methyl-ethoxy)-N-(5-fluorothiazol-2-yl)-benzamide [Example 29]"
15,119 nM,3-[trans-2-(4-fluorophenyl)vinyl]-5-(2-methoxy-(1S)-methyl-ethoxy)-N-(1-methyl-1H-pyrazol-3-yl)-benzamide [Example 39]
16,89.8 nM,"COC[C@H](C)Oc1cc(/C=C/c2c(F)cccc2F)cc(C(=O)Nc2ccc(C(=O)O)cn2)c1 [Example 81, 3-[trans-2-(2,6-difluorophenyl)vinyl]-5-(2-methoxy-(1S)-methyl-ethoxy)-N-(nicotinic acid-6-yl)-benzamide]"
17,79.8 nM,3-[trans-2-(2-fluorophenyl)vinyl]-5-(2-methoxy-(1S)-methyl-ethoxy)-N-(1-methyl-1H-pyrazol-3-yl)-benzamide [Example 33]
18,72.1 nM,3-[2-(2-methanesulfonylaminophenyl)ethyl]-5-(2-methoxy-(1S)-methyl-ethoxy)-N-(thiazol-2-yl)-benzamide [Example 113]
19,50.4 nM,"3-[trans-2-(2,3-dimethoxyphenyl)vinyl]-5-(2-methoxy-(1S)-methyl-ethoxy)-N-(thiazol-2-yl)-benzamide [Example 17]"
20,48.4 nM,3-[trans-2-(3-fluorophenyl)vinyl]-5-(2-methoxy-(1S)-methyl-ethoxy)-N-(thiazol-2-yl)-benzamide [Example 7]
21,46.5 nM,"3-[trans-2-(2,5-difluorophenyl)vinyl]-5-(2-methoxy-(1S)-methyl-ethoxy)-N-(5-fluorothiazol-2-yl)-benzamide [Example 26]"
22,19.4 nM,3-[trans-2-(3-nitrophenyl)vinyl]-5-(2-methoxy-(1S)-methyl-ethoxy)-N-(thiazol-2-yl)-benzamide [Example 14]
